From patent US8471027B2, “Adamantyl compounds” (Hoffmann-La Roche Inc., priority 2011, dated 2013)

How the values were obtained:
[1] = molecular target: JNK1 (Homo sapiens, UniProt P45983); test: In vitro JNK1 Assay (TR-FRET, phosphorylation of GST-c-Jun); type: biochemical; conditions: 0.2 nM JNK1, 26.7 nM GST-c-Jun, 2 μM ATP
Method: Phosphorylation of GST-c-Jun protein (amino acid residues 1-79) was measured as JNK1 activity. […] The reaction buffer contained 50 mM HEPES, pH 7.0, 10 mM MgCl2, 1 mM DTT, 0.1 mM Na3 VO4 and 0.2 mg/mL BSA. After 30 min. incubation at room temperature, the reaction was terminated by adding buffer containing 8 mM EDTA and a polyclonal anti-phospho-c-Jun antibody (Cell Signaling #9261L), followed by an additional incubation of 30 min. at room temperature. […] Time-resolved Fluorescence Resonance Energy Transfer (TR-FRET) signals were measured 1 hr. later on the EnVision reader (Perkin Elmer). Compound potency was assessed at 10 serially diluted concentrations. Percentage of inhibition at each concentration was determined to generate an IC50 value for each compound.

[2] = test system: phospho(Ser63)-c-jun in HK-2 cells; test: Cell-based assay for JNK inhibitors: in-cell ELISA of TNFα-stimulated phospho(Ser63)-c-jun in HK-2 cells; conditions: Homo sapiens, 10 ng/mL TNFα, 60 min preincubation with compound
Method: Cell-Based Assay for JNK Inhibitors
The cell-based assay employed the in-cell ELISA method to determine the ability of compounds to prevent the generation of phospho(Ser63)-c-jun in HK-2 cells (human proximal tubule cells) in response to stimulation with tumor necrosis factor α (TNFα). In brief, for quantification of phospho(Ser63)-c-jun, the cells (in 96-well format) were fixed and permeablized then incubated sequentially with a rabbit anti-phospho-c-jun First Antibody specific for the presence of the phospho-Ser63 epitope and a donkey anti-rabbit IgG Second Antibody linked to horseradish peroxidase (HRP) for colorimetric quantitation of binding. For determination of non-specific binding of the First Antibody, Blank wells were preincubated with a mouse anti-phospho(Ser63)-c-jun Blocking Antibody that prevented specific binding of the First Antibody to the phospho-Ser63 epitope, but which was not recognized by the donkey anti-rabbit IgG Second Antibody. […] Blank wells received no TNFα stimulation or compound. Additional Control wells received TNFα stimulation, but no compound. The signal obtained in this case was considered the value for 0% inhibition (Control value).
Stock cultures of HK-2 cells (ATCC, Manassas, Va.) were grown under a 5% CO2/[…] atmosphere at 37 degrees C. in Keratinocyte-SFM medium (KSFM, Invitrogen, Grand Island, N.Y.) containing 5 μg/L epidermal growth factor and 5 mg/L bovine pituitary extract (both supplied with the medium), additionally supplemented with 10% (v/v) fetal calf serum (FCS; Invitrogen, Grand Island, N.Y.) and 1% (v/v) antibiotic-antimycotic (ABAM: Sigma, St. Louis, Mo.). For assays, cells were seeded in collagen coated 96-well polystyrene plates (BD Biosciences, Franklin Lakes, N.J.) at a density of 40,000 cells/well and cultured for 24 h in the same medium (100 μL/well) followed by a further 16-24 h in 100 μL of similar medium, but without FCS. […] Cells were incubated for a further 30 minutes and then the medium was aspirated and the wells washed with 100 μL/well PBS followed by the addition of 100 μL 3.7% (v/v) Formaldehyde (Fisher Scientific, Fair Lawn, N.J.) in PBS. Plates were then allowed to stand at room temperature for 20 minutes before being washed with 200 μL/well of PBS. (Further steps were performed immediately or the plates were stored at 4 degrees C. and the assay completed the next day.) To each well was added 100 μL 1% (v/v) TritonX-100 (Sigma, St. Louis, Mo.) in PBS followed by 20 minutes standing at room temperature, washing with 200 μL/well PBS, the addition of 100 μL/well of Quenching buffer (1% (v/v) hydrogen peroxide (Sigma, St. Louis, Mo.) and 0.1% (w/v) sodium azide (Fisher Scientific, Fair Lawn, N.J.)) in PBS and a further 20 minutes at room temperature. Plates were then washed twice with 200 μL/well of 0.1% (v/v) Tween-20 (Teknova, Hollister, Calif.) in PBS before addition of 200 μL/well of 2% BSA/0.10% Tween-20 in PBS and a further 1 hour at room temperature. At this time, buffer was removed from Blank wells and replaced with 90 μL/well of mouse anti-phospho-c-jun-Ser63 (BD Bioscience, 558036) diluted 1:4000 in PBS containing 1% BSA/0.1% Tween-20 (Antibody Dilution Buffer). All other wells are replaced with 90 μL/well of rabbit anti-phospho-c-jun-Ser63 (Cell Signaling, 9261) diluted 1:250 in Antibody Dilution Buffer. After a further one hour, rabbit anti-phospho-c-jun-Ser63 is added directly to the solution in the Blank wells resulting in 1:250 dilution of this antibody. Plates were then placed on a slowly rotating platform at 4 degrees C. overnight. Wells were then washed thrice with 200 μL/well PBS/0.1% Tween-20. After addition of the third wash, the plates were placed on a slowly rotating platform for 15 minutes at room temperature. […]

JNK1, sequence (P45983 whole entry, species assumed, the tested form may be a part): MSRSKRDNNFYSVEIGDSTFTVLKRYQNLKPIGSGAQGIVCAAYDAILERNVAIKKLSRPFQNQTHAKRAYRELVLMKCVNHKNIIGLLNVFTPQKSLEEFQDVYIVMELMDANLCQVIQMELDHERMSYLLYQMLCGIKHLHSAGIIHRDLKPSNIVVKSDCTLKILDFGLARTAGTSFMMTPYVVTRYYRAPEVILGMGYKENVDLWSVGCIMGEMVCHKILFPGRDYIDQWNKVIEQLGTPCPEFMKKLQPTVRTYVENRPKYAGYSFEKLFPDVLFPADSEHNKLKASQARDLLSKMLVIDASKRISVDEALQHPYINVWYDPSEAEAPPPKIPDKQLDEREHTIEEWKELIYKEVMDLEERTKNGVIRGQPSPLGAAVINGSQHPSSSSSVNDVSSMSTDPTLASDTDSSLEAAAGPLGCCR

Row | SMILES | IC50 [1] | EC50 [2]
1 | COC(=O)c1c(Cc2ccc(C(=O)N[C@@H]3[C@@H]4C[C@@H]5C[C@H]3C[C@@](NC(=O)C(C)(C)OC(C)=O)(C5)C4)cc2)c(=O)c2ccc(Cl)cc2n1-c1ccccc1 [Compound I-12, rel-3-{4-[(1S,2S,3R,5S,7S)-5-(2-Acetoxy-2-methyl-propionylamino)-adamantan-2-ylcarbamoyl]-benzyl}-7-chloro-4-oxo-1-phenyl-1,4-dihydro-quinoline-2-carboxylic acid methyl ester] | 17 nM | 3.3 µM
2 | COC(=O)c1c(Cc2ccc(C(=O)N[C@H]3[C@@H]4C[C@@H]5C[C@H]3C[C@@](O)(C5)C4)cc2)c(=O)c2ccc(Cl)cc2n1-c1ccccc1 [Compound I-4, rel-7-Chloro-3-[4-((1S,2R,3R,5S,7S)-5-hydroxy-adamantan-2-ylcarbamoyl)-benzyl]-4-oxo-1-phenyl-1,4-dihydro-quinoline-2-carboxylic acid methyl ester] | 51 nM | 6.3 µM
3 | O=C(N[C@@H]1[C@@H]2C[C@@H]3C[C@H]1C[C@@](O)(C3)C2)c1ccc(Cc2cn(-c3ccccn3)c3cc(Cl)ccc3c2=O)cc1 [Compound I-5, rel-4-(7-Chloro-4-oxo-1-pyridin-2-yl-1,4-dihydro-quinolin-3-ylmethyl)-N-((1S,2S,3R,5S,7S)-5-hydroxy-adamantan-2-yl)-benzamide] | 330 nM | –
4 | COC(=O)c1c(Cc2ccc(C(=O)N[C@@H]3[C@@H]4C[C@@H]5C[C@H]3C[C@@](O)(C5)C4)cc2)c(=O)c2ccc(C(F)(F)F)nc2n1-c1ccccc1 [Compound I-25, rel-3-[4-((1S,2S,3R,5S,7S)-5-Hydroxy-adamantan-2-ylcarbamoyl)-benzyl]-4-oxo-1-phenyl-7-trifluoromethyl-1,4-dihydro-[1,8]naphthyridine-2-carboxylic acid methyl ester] | 77 nM | 3.6 µM
5 | COC(=O)c1c(Cc2ccc(C(=O)N[C@@H]3[C@@H]4C[C@@H]5C[C@H]3C[C@@](NS(=O)(=O)C3CC3)(C5)C4)cc2)c(=O)c2ccc(Cl)cc2n1-c1ccccc1 [Compound I-14, rel-7-Chloro-3-[4-((1S,2S,3R,5S,7S)-5-cyclopropanesulfonylamino-adamantan-2-ylcarbamoyl)-benzyl]-4-oxo-1-phenyl-1,4-dihydro-quinoline-2-carboxylic acid methyl ester] | 26 nM | 3.1 µM
6 | COC(=O)c1c(Cc2ccc(C(=O)N[C@@H]3[C@@H]4C[C@@H]5C[C@H]3C[C@@](N)(C5)C4)cc2)c(=O)c2ccc(Cl)cc2n1-c1ccccc1 [Compound I-9, rel-3-[4-((1S,2S,3R,5S,7S)-5-Amino-adamantan-2-ylcarbamoyl)-benzyl]-7-chloro-4-oxo-1-phenyl-1,4-dihydro-quinoline-2-carboxylic acid methyl ester] | 27 nM | 3.2 µM
7 | COC(=O)c1c(Cc2ccc(C(=O)N[C@@H]3[C@@H]4C[C@@H]5C[C@H]3C[C@@](NC(=O)C(C)(C)OC(C)=O)(C5)C4)cc2)c(=O)c2cccnc2n1-c1ccccc1 [Compound I-21, rel-3-{4-[(1S,2S,3R,5S,7S)-5-(2-Acetoxy-2-methyl-propionylamino)-adamantan-2-ylcarbamoyl]-benzyl}-4-oxo-1-phenyl-1,4-dihydro-[1,8]naphthyridine-2-carboxylic acid methyl ester] | 25 nM | 4.8 µM
8 | COC(=O)c1c(Cc2ccc(C(=O)N[C@@H]3[C@@H]4C[C@@H]5C[C@H]3C[C@@](O)(C5)C4)cc2OC)c(=O)c2cccnc2n1-c1ccccc1 [Compound I-23, rel-3-[4-((1S,2S,3R,5S,7S)-5-Hydroxy-adamantan-2-ylcarbamoyl)-2-methoxy-benzyl]-4-oxo-1-phenyl-1,4-dihydro-[1,8]naphthyridine-2-carboxylic acid methyl ester] | 27 nM | 7.8 µM

The remaining lines, values ahead:

Row | IC50 [1] | EC50 [2] | SMILES
9 | 22 nM | 4.1 µM | COC(=O)c1c(Cc2ccc(C(=O)N[C@@H]3[C@@H]4C[C@@H]5C[C@H]3C[C@@](NC(=O)C(C)(C)O)(C5)C4)cc2)c(=O)c2cccnc2n1-c1ccccc1 [Compound I-22, rel-3-{4-[(1S,2S,3R,5S,7S)-5-(2-Hydroxy-2-methyl-propionylamino)-adamantan-2-ylcarbamoyl]-benzyl}-4-oxo-1-phenyl-1,4-dihydro-[1,8]naphthyridine-2-carboxylic acid methyl ester]
10 | 42 nM | 1.9 µM | COC(=O)c1c(Cc2ccc(C(=O)N[C@@H]3[C@@H]4C[C@@H]5C[C@H]3C[C@@](NC(=O)C(C)(C)O)(C5)C4)cc2)c(=O)c2ccc(Cl)cc2n1-c1ccccc1 [Compound I-13, rel-7-Chloro-3-{4-[(1S,2S,3R,5S,7S)-5-(2-hydroxy-2-methyl-propionylamino)-adamantan-2-ylcarbamoyl]-benzyl}-4-oxo-1-phenyl-1,4-dihydro-quinoline-2-carboxylic acid methyl ester]
11 | 30 nM | 3.5 µM | COC(=O)c1c(Cc2ccc(C(=O)N[C@@H]3[C@@H]4C[C@@H]5C[C@H]3C[C@@](NC(C)=O)(C5)C4)cc2)c(=O)c2ccc(Cl)cc2n1-c1ccccc1 [Compound I-10, rel-3-[4-((1S,2S,3R,5S,7S)-5-Acetylamino-adamantan-2-ylcarbamoyl)-benzyl]-7-chloro-4-oxo-1-phenyl-1,4-dihydro-quinoline-2-carboxylic acid methyl ester]
12 | – | 44 µM | COC(=O)c1c(Cc2ccc(C(=O)N[C@H]3[C@@H]4C[C@@H]5C[C@H]3C[C@@](N)(C5)C4)cc2)c(=O)c2cccnc2n1-c1ccccc1 [Compound I-8, rel-3-[4-((1S,2R,3R,5S,7S)-5-amino-adamantan-2-ylcarbamoyl)-benzyl]-4-oxo-1-phenyl-1,4-dihydro-[1,8]naphthyridine-2-carboxylic acid methyl ester]
13 | 34 nM | 8.6 µM | COC(=O)c1c(Cc2ccc(C(=O)N[C@@H]3[C@@H]4C[C@@H]5C[C@H]3C[C@@](O)(C5)C4)cc2F)c(=O)c2cccnc2n1-c1ccccc1 [Compound I-24, rel-3-[2-Fluoro-4-((1S,2S,3R,5S,7S)-5-hydroxy-adamantan-2-ylcarbamoyl)-benzyl]-4-oxo-1-phenyl-1,4-dihydro-[1,8]naphthyridine-2-carboxylic acid methyl ester]
14 | 39 nM | 5.3 µM | COC(=O)c1c(Cc2ccc(C(=O)N[C@@H]3[C@@H]4C[C@@H]5C[C@H]3C[C@@](NC(=O)C(C)(C)C)(C5)C4)cc2)c(=O)c2cccnc2n1-c1ccccc1 [Compound I-20, rel-3-{4-[(1S,2S,3R,5S,7S)-5-(2,2-Dimethyl-propionylamino)-adamantan-2-ylcarbamoyl]-benzyl}-4-oxo-1-phenyl-1,4-dihydro-[1,8]naphthyridine-2-carboxylic acid methyl ester]
